TGI and GI50 data for 11 molecules are collected here from PubChem BioAssay (NCI).

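Assay format: 96-well plates, 48-hour exposure. The concentration for 50% growth inhibition is given as GI50. TGI denotes the concentration required for complete inhibition of growth.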

Holding throughout (test): growth of human tumour cells (NCI), 48 h
In experiment [1] the test system is M14 melanoma.
For experiment [2], the system named is UACC-62 melanoma.
The test system of experiment [3] is KM12 colon.
Experiment [4] has as its system NCI-H226 lung.
Experiment [5] concerns EKVX NSCLC.
Experiment [6] concerns SNB-19 CNS.
In experiment [7] the test system is UO-31 renal.
Experiment [8] concerns SF-268 CNS.
Experiment [9] relates to PC-3 prostate.

In the case of `COC1=CC2(C=CC1=O)c1cc(OC)c(OC)cc1CCN2C(=O)c1ccccc1` (stereo unspecified), the TGI in experiment [1], in [2], in experiment [3], in experiment [4], in [5] and in experiment [6] was > 100 µM each time. For the same molecule, the TGI in [7] was > 100 µM.
With `CCCCCCC(=O)C/C(=N/NC(N)=S)C(=O)NC1C2CC3CC(C2)CC1C3` (stereo unspecified), the TGI in experiment [8], in experiment [1], in [2], in [3], in [4] and in experiment [5] was > 100 µM throughout. Also, the TGI in experiment [6] and in experiment [7] was > 100 µM throughout.
`N.N.O=C([O-])P(=O)([O-])[O-].[Na+].[Pt+4]`: the GI50 in experiment [8], in experiment [1], in experiment [2], in [3], in experiment [5] and in experiment [6] was > 100 µM throughout. Also, the GI50 in experiment [7] was > 100 µM. For the same molecule, the TGI in experiment [8], in experiment [1], in experiment [2], in experiment [3], in [5] and in [6] was > 100 µM in each case. In addition, in experiment [7], the TGI is > 100 µM.
On to `Cc1nc2ccccc2c(=O)n1-c1ccccc1F`, for which the TGI in experiment [8], in [1], in experiment [2], in experiment [3], in experiment [4] and in experiment [5] was > 100 µM throughout. In addition, the TGI in experiment [6] and in experiment [7] was > 100 µM in each case.
In the case of `C=C[C@H]1C[C@@H]2C[C@@H]3[C@H]4C/C=C\C(=O)NCCCC5NC(=O)C(=C(O)/C=C/[C@@H]4CC(=O)[C@H]3[C@@H]2[C@H]1C)C5=O` (stereo partly specified), the GI50 is 0.172 µM in [8]; 0.253 µM in [1]; 1.45 µM in experiment [2]; 1.74 µM in experiment [3]; 0.166 µM in experiment [4]; 1.13 µM in experiment [5]. Further, the figures for the GI50 in experiment [9], in [6] and in experiment [7] were 1.36 µM, 0.286 µM and 0.15 µM, respectively. In addition, the TGI in [8] was found to be 0.334 µM; in experiment [1] it was 0.822 µM; in experiment [2] it was 2.88 µM; in experiment [3], 3.33 µM; in experiment [4], 0.379 µM; in experiment [5], 2.54 µM. Besides, the TGI in experiment [9] was 2.76 µM; in experiment [6], 1 µM; in experiment [7], 0.299 µM.
Regarding `Cn1c2ccccc2c2c3[nH]c(=O)[nH]c(=O)c3c3c4ccccc4n(C)c3c21`, the GI50 was 3.12 µM in [8]; 2.43 µM in [1]; 6.64 µM in experiment [2]; 2.51 µM in experiment [3]; 1.66 µM in [4]; 2.54 µM in experiment [5]. In addition, the GI50 in experiment [9] was 30.1 µM; in experiment [6], 3.8 µM. The TGI in experiment [8] was 15.6 µM; in [1] it was > 100 µM; in [2] it was > 100 µM; in experiment [3] it was > 100 µM; in experiment [4] it was 5.37 µM; in experiment [5] it was 47.2 µM. The TGI was > 100 µM in experiment [9] and 21.4 µM in experiment [6].
With `Cc1nc(-c2ccccc2)c(-c2ccccc2)s1`, the TGI in experiment [8] came out at 78.6 µM; in [1], 41.1 µM; in [2], 56.8 µM; in experiment [3], 71.2 µM; in experiment [4], 42.7 µM; in experiment [5], 69.4 µM. The results for the TGI in [9], in experiment [6] and in experiment [7] were 47.1 µM, > 100 µM and 54.1 µM, respectively.
On to `CC(C)c1ccc(C(c2ccc(OCC(=O)O)cc2)c2ccc(C(C)C)cc(=O)c2O)c(O)c(=O)c1`, for which the TGI in experiment [1] was 11 µM; in [2], 20.7 µM; in [5], > 100 µM; in experiment [6], 28 µM.
As for `O=C(O)[C@@H]1CCCCN1Cc1cc2cc3c(cc2c2cc(OCc4ccccc4)ccc12)OCO3`, the GI50 in experiment [8] was 2.98 µM; in experiment [1], 16.5 µM; in [2], 1.49 µM; in experiment [3], 4.24 µM; in experiment [4], 2.09 µM; in experiment [5] it was 4.42 µM. Further, the GI50 in [9] is 16.4 µM; in [6], 2.31 µM; in [7] it was 4.77 µM. The TGI in experiment [8] is 21.2 µM; in experiment [1], 30.4 µM; in [2], 3.08 µM; in experiment [3], 25.5 µM; in [4] it was 5.7 µM; in experiment [5], 25.3 µM. The TGI came to 38.3 µM in [9], 8.86 µM in experiment [6] and 17.4 µM in experiment [7].
Regarding `Cc1ccc2[nH]c(C(=O)NN3C(=O)C(C)SC34CCCC(C)C4)c(-c3ccccc3)c2c1` (stereo unspecified), the GI50 in experiment [8] was 64.8 µM; in [1], > 100 µM; in experiment [2], 76.8 µM; in [3], 65.6 µM; in experiment [4], > 100 µM; in experiment [5], > 100 µM. The values for the GI50 in [9], in [6] and in experiment [7] were 55.1 µM, > 100 µM and > 100 µM, respectively. Also, the TGI in experiment [8], in [1], in experiment [2], in experiment [3], in experiment [4] and in experiment [5] was > 100 µM each time. Besides, the TGI in [9], in experiment [6] and in [7] was > 100 µM throughout.
For `CC(=O)O.[Au].c1ccc([PH+](c2ccccc2)c2ccccc2)cc1`, the GI50 in experiment [8] is 3.05 µM; in experiment [1], 1.39 µM; in experiment [2], 1.47 µM; in [3], 11.7 µM; in experiment [4] it was 6.59 µM; in experiment [5], 3.61 µM. Besides, the GI50 in [6] is 4.11 µM; in experiment [7], 11.1 µM. The TGI in [8] was determined as 11.5 µM; in experiment [1], 2.77 µM; in experiment [2] it was 4.03 µM; in [3], 39.8 µM; in experiment [4] it was 19.1 µM; in experiment [5] it was 8.56 µM. For the same molecule, the TGI came out at 15.8 µM in [6] and 24.4 µM in experiment [7].
